According to patent publication US20260207585A1, “METHODS AND COMPOSITIONS FOR THE TREATMENT OF PARKINSON'S DISEASE, HUNTINGTON'S DISEASE, AMYOTROPHIC LATERAL SCLEROSIS, AND LEARNING DISORDERS” (Cedars-Sinai Medical Center, priority 2022, published 2026):
Like-named read-outs stand apart in the source and are kept apart here.

Key:
SMYD3 = target: T1, SMYD3 (Homo sapiens, UniProt Q9H7B4); experiment: Methyltransferase inhibition panel: SMYD3; format: biochemical
T1 sequence (Q9H7B4 1-428): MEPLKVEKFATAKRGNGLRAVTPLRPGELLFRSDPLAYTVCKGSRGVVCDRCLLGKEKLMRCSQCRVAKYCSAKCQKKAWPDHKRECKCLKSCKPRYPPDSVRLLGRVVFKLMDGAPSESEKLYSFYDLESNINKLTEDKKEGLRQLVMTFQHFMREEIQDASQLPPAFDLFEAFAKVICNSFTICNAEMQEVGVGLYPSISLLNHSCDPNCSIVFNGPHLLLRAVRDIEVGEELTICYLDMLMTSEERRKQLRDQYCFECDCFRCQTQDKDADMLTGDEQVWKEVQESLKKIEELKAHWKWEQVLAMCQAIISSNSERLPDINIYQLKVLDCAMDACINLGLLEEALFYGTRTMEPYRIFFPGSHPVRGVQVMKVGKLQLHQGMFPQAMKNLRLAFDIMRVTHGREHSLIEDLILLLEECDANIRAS
Protocol: (§1) The ability of ETP69 to inhibit methyltransferases was tested.

SET7/9 = target: T2, SET7/9 (Homo sapiens, UniProt Q8WTS6); experiment: Methyltransferase inhibition panel: SET7/9; format: biochemical
T2 sequence (Q8WTS6 1-366): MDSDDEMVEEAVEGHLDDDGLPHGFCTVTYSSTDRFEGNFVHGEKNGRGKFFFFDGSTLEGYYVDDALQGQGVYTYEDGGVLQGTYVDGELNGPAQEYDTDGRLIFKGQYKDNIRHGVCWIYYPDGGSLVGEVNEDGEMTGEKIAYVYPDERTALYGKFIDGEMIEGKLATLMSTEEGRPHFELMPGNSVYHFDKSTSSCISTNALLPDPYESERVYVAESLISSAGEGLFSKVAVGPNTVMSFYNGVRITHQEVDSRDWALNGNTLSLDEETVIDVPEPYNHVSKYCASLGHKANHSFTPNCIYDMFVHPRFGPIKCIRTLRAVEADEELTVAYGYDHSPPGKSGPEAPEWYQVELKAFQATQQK
Protocol: as §1

PRMT3 = PRMT3 (Homo sapiens, UniProt O60678); experiment: Methyltransferase inhibition panel: PRMT3; format: biochemical
Protocol: as §1

PRMT7 = target: T3, PRMT7 (Homo sapiens, UniProt Q9NVM4); experiment: Methyltransferase inhibition panel: PRMT7; format: biochemical
T3 sequence (Q9NVM4 1-692): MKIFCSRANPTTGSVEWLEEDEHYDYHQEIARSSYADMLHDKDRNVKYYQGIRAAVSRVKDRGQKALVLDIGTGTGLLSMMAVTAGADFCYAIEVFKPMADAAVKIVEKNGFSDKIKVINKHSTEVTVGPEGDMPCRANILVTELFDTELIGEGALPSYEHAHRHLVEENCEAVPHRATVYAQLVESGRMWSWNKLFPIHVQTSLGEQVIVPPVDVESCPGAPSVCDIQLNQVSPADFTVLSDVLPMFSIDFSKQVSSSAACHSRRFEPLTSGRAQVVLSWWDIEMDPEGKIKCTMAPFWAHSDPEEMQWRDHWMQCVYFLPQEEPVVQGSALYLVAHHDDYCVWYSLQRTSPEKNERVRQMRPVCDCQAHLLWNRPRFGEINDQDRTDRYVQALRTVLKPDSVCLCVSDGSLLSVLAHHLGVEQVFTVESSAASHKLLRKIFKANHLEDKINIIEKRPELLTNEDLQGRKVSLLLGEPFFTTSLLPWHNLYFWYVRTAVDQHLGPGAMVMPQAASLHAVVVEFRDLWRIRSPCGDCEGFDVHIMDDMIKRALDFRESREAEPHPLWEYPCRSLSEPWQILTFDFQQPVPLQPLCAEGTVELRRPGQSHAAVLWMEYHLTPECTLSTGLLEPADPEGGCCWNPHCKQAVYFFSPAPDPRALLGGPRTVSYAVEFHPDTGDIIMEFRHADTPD
Protocol: as §1

MLL3 Complex = MLL3 Complex (Homo sapiens, UniProt Q8NEZ4); experiment: Methyltransferase inhibition panel: MLL3 Complex; format: biochemical
Protocol: as §1

AD+ mice [1] = experiment: Open Field Barnes Maze test; format: in vivo; settings: AD+ mice vs AD+ mice treated with DMSO
Protocol: (§2) The effects of single and repeated ETP69 injections in mice were tested. The experimental timeline is depicted in FIG. 5. Three parallel injection conditions were tested: a single ETP69 condition, a boosted ETP69 injection, and repeated ETP69 injections. The single injection mice received one injection of ETP69 or DMSO at Day 0. The mice that received a boosted injection received one injection of ETP69 or DMSO at day 0 and one injection at day 9. The mice that received repeated injections received 11 injections of ETP69 or DMSO at day 0 or day 9. Both wildtype and AD model (APP/PS1-transgenic) mice were tested.
(§3) The results of the Open Field Barnes Maze test indicate hippocampal-based spatial memory. FIG. 7A depicts a schematic of the Barnes Maze Test. […] The results of the fear conditioning test indicate spatial memory.

AD+ mice [2] = experiment: Fear conditioning test; format: in vivo
Protocol: as §2, §3

SETD2 = SETD2 (Homo sapiens, UniProt Q9BYW2); experiment: Methyltransferase inhibition panel: SETD2; format: biochemical
Protocol: as §1

GFAP = GFAP staining of brain sections; format: in vivo; settings: AD+ mice; 4 and 15 days
From the text: ETP69 administration reduced AD-related brain pathology (FIGS. 9A-9C). Brain sections were stained for H3K9me3, 6E10 and GFAP.

MLL4 Complex = MLL4 Complex (Homo sapiens, UniProt Q9UMN6); experiment: Methyltransferase inhibition panel: MLL4 Complex; format: biochemical
Protocol: as §1

EZH2 Complex = EZH2 Complex (Homo sapiens, UniProt Q15910); experiment: Methyltransferase inhibition panel: EZH2 Complex; format: biochemical; settings: NT1721 20 μM; substrate Core Histone 0.05 mg/mL
Protocol: as §1

PRMT4 = PRMT4 (Homo sapiens, UniProt Q86X55); experiment: Methyltransferase inhibition panel: PRMT4; format: biochemical
Protocol: as §1

[3] = read-out: Enzyme % Activity (relative to DMSO controls) Data 1
[4] = read-out: Enzyme % Activity (relative to DMSO controls) Data 2
[5] = NT1721 20 μM, substrate GST-GAR 5 μM
[6] = NT1721 20 μM, substrate Nucleosomes 0.05 mg/mL

SETD2, sequence (Q9BYW2 whole entry): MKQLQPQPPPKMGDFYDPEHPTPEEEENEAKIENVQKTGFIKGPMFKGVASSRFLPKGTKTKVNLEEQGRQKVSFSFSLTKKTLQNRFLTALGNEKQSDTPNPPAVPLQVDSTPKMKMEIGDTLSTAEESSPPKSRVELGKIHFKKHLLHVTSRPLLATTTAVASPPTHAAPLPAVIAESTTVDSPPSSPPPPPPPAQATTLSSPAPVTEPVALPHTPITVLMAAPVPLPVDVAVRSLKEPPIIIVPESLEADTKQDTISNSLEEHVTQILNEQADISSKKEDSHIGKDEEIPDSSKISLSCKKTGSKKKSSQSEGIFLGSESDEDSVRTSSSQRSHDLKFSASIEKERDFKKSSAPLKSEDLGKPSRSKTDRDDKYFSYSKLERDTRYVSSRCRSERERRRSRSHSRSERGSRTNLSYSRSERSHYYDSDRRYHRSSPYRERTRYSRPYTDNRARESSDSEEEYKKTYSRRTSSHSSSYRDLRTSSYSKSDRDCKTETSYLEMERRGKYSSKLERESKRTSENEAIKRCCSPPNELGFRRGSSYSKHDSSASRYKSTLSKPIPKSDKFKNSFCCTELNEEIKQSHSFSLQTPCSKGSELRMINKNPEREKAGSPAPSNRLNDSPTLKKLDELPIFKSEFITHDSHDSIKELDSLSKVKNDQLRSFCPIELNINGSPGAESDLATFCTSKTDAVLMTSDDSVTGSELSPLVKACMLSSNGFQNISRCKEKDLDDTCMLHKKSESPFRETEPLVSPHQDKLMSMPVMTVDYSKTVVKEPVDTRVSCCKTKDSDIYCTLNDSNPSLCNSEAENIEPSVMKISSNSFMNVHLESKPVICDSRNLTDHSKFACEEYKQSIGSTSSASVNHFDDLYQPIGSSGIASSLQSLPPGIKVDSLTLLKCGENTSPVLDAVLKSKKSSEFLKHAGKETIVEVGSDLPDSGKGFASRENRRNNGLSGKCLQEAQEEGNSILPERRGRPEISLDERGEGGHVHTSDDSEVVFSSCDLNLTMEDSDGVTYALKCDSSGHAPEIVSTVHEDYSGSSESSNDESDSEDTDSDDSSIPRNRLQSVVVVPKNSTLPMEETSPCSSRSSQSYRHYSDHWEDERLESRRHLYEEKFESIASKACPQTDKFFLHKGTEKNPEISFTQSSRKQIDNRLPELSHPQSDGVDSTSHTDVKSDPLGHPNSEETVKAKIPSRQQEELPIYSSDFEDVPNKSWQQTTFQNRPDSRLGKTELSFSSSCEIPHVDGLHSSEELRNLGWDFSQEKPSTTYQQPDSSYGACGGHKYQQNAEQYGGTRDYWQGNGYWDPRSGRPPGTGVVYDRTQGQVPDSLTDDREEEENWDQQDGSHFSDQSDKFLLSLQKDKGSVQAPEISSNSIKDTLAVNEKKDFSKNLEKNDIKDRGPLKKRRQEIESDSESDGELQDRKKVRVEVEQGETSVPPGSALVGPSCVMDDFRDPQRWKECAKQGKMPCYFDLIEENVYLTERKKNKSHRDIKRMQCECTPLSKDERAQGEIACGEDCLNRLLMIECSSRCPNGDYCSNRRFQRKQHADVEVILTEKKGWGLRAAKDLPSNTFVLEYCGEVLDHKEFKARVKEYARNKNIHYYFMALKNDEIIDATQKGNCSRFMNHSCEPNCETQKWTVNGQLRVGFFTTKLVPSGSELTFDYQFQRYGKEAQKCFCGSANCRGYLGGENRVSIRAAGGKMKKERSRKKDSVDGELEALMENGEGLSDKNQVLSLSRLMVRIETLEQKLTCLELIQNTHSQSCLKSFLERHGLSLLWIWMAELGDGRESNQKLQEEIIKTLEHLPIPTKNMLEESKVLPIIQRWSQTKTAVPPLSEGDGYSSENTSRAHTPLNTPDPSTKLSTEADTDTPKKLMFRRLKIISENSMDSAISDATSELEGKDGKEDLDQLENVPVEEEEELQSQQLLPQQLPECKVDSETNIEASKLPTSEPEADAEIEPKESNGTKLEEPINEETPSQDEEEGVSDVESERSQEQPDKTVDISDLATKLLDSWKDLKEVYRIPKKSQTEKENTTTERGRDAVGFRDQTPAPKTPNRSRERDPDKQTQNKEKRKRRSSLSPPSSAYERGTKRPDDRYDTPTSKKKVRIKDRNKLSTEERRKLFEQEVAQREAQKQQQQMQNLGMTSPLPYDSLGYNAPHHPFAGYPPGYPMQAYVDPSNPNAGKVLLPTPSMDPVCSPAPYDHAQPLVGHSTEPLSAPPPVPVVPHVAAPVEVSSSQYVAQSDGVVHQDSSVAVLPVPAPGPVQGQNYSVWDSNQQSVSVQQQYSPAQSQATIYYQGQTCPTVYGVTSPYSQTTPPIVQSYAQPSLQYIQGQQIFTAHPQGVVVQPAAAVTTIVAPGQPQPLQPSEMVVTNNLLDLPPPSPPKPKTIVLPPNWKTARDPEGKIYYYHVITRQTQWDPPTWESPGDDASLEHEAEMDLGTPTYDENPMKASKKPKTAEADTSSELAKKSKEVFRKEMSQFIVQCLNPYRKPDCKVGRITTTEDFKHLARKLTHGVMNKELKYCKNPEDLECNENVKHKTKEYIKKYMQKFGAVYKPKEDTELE
MLL3 Complex, sequence (Q15291 whole entry): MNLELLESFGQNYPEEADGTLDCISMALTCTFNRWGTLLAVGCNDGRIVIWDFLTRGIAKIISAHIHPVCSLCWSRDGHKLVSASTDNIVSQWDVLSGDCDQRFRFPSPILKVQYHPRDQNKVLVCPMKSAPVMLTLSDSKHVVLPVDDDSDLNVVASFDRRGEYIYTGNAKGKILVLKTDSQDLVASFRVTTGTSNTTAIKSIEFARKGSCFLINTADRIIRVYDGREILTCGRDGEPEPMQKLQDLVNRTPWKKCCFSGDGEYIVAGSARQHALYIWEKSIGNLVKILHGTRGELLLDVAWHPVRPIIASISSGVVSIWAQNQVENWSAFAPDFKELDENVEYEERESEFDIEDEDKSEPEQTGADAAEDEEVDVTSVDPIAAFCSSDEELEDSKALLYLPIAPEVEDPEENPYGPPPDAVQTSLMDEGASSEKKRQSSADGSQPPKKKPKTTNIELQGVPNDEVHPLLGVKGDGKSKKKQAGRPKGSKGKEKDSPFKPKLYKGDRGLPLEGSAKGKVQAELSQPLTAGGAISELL
MLL3 Complex, sequence (Q8NEZ4 4689-4911): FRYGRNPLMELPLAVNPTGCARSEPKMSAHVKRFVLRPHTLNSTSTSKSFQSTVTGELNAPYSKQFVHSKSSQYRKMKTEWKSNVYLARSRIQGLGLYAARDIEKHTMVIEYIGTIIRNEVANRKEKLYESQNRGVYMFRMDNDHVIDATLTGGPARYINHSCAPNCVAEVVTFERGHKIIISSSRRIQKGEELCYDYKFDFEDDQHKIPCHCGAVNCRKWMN
MLL3 Complex, sequence (Q9UBL3 96-628, further chain): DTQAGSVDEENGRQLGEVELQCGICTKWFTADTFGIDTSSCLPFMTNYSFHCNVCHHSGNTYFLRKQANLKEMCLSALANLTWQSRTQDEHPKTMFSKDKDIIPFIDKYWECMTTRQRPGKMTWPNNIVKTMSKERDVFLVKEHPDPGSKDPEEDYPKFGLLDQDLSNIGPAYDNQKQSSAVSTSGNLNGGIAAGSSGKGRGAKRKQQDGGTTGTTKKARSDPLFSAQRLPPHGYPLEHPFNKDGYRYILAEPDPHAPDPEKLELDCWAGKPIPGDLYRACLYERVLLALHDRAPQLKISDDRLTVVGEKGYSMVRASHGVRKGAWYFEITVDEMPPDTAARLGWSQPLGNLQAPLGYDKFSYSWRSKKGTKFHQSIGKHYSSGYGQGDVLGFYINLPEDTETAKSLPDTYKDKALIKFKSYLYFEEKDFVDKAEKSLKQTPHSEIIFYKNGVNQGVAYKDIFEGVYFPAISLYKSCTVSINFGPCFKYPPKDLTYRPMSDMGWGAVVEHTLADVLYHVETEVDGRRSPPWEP
MLL3 Complex, sequence (Q9C005 whole entry, further chain): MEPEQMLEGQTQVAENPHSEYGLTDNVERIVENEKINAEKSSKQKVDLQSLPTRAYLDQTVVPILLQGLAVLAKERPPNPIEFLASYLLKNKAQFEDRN
MLL4 Complex, sequence (Q9UMN6 2490-2715): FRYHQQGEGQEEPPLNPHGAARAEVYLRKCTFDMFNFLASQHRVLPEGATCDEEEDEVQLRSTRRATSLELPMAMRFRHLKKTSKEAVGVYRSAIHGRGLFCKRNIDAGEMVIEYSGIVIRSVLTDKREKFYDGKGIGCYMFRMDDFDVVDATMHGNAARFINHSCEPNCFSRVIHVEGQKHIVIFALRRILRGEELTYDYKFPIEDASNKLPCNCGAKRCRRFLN
MLL4 Complex, sequence (Q9C005 whole entry, further chain): as the sequence (Q9C005 whole entry, further chain) above
MLL4 Complex, sequence (Q9UBL3 whole entry, further chain): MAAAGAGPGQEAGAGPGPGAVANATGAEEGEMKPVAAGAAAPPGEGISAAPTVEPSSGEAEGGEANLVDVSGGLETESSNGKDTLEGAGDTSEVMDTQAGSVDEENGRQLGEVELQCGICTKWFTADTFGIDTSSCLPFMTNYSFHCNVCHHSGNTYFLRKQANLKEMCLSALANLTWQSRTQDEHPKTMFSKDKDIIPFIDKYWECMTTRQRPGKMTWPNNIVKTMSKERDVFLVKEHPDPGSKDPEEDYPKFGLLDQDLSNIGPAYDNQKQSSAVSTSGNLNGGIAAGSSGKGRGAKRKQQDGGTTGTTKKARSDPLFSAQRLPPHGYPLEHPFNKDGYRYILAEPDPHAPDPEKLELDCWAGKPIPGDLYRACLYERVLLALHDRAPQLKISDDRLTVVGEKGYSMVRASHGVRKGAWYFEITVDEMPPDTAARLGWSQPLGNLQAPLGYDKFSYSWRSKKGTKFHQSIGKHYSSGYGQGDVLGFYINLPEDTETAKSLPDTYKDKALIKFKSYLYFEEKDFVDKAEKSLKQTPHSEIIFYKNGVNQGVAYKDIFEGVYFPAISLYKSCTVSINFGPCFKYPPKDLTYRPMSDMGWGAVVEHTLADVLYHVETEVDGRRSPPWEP
MLL4 Complex, sequence (Q15291 whole entry, further chain): as the sequence (Q15291 whole entry) above

For CN1C(=O)[C@@]23C[C@](C)(C#N)[C@H](c4ccc5c(c4)OCO5)N2C(=O)[C@]1(C)SS3 (racemic) [ETP69, Rac-(3S,6S,7S,8aS)-6-(benzo[d][1,3]dioxol-5-yl)-2,3,7-trimethyl-1,4-dioxohexahydro-6H-3,8a-epidithiopyrrolo[1,2-a]pyrazine-7-carbonitrile], the remaining activity at 20 µM (SMYD3; [3]) was 8.99%, the remaining activity at 20 µM (SMYD3; [4]) was 7.71% and the “inhibition relative to DMSO controls” value (SMYD3; summary of Table 1) was “at least 7500”. The remaining activity at 20 µM (SET7/9; [3]) was 107%, the remaining activity at 20 µM (SET7/9; [4]) was 107% and the remaining activity at 20 µM (PRMT3; [3]) was 94%. For the same molecule, the remaining activity at 20 µM (PRMT3; [4]) was 95%, the “Enzyme % Activity (relative to DMSO controls) Data 1” value (PRMT7; [5]) was 66.70% and the “Enzyme % Activity (relative to DMSO controls) Data 2” value (PRMT7; [5]) was 66.73%. The “inhibition relative to DMSO controls” value (PRMT7; summary of Table 1) was “at least 7500”, the remaining activity at 20 µM (MLL3 Complex; [3]) was 36.6% and the remaining activity at 20 µM (MLL3 Complex; [4]) was 32.6%. For the same molecule, the “inhibition relative to DMSO controls” value (MLL3 Complex; summary of Table 1) was “at least 7500”, the memory retention (AD+ mice [1]) was “improvement” and the freezing time (AD+ mice [2]) was “increased”. The “Enzyme % Activity (relative to DMSO controls) Data 1” value (SETD2; [6]) was 20.95%, the “Enzyme % Activity (relative to DMSO controls) Data 2” value (SETD2; [6]) was 22.89% and the “inhibition relative to DMSO controls” value (SETD2; summary of Table 1) was “at least 7500”. The GFAP (GFAP) was “significant decrease”, the remaining activity at 20 µM (MLL4 Complex; [3]) was 1.32% and the remaining activity at 20 µM (MLL4 Complex; [4]) was 1.17%. The “inhibition relative to DMSO controls” value (MLL4 Complex; summary of Table 1) was “at least 7500”, the “Enzyme % Activity (relative to DMSO controls) Data 1” value (EZH2 Complex) was 98.37% and the “Enzyme % Activity (relative to DMSO controls) Data 2” value (EZH2 Complex) was 97.85%. The remaining activity at 20 µM (PRMT4; [3]) was 115% and the remaining activity at 20 µM (PRMT4; [4]) was 114%.
